Measured values published in patent US9777000B2, “Pyrazole derivative” (MOCHIDA PHARMACEUTICAL CO., LTD., priority 2013, dated 2017).

Target: human PDE10 (Homo sapiens (Human), UniProt Q9Y233)
Experiment: Evaluation of enzyme inhibitory activity: human PDE10 inhibitory effect (IMAP TR-FRET)
Type: biochemical
Details: cAMP substrate
Outline: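 IMAP TR-FRET assay: PDE10 (diluted to 2 ng/mL) was preincubated 5 min with compound in Tris pH 7.2, 10 mM MgCl2, 0.1% BSA, then reacted 60 min at room temperature with cAMP (diluted to 400 nM). 5′-AMP was read as 520/490 nm TR-FRET (ex 340 nm) after ≥3 h binding; IC50 was referenced to solvent (0%) and no-enzyme (100%) wells.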

Chain of human PDE10 (Q9Y233 whole entry): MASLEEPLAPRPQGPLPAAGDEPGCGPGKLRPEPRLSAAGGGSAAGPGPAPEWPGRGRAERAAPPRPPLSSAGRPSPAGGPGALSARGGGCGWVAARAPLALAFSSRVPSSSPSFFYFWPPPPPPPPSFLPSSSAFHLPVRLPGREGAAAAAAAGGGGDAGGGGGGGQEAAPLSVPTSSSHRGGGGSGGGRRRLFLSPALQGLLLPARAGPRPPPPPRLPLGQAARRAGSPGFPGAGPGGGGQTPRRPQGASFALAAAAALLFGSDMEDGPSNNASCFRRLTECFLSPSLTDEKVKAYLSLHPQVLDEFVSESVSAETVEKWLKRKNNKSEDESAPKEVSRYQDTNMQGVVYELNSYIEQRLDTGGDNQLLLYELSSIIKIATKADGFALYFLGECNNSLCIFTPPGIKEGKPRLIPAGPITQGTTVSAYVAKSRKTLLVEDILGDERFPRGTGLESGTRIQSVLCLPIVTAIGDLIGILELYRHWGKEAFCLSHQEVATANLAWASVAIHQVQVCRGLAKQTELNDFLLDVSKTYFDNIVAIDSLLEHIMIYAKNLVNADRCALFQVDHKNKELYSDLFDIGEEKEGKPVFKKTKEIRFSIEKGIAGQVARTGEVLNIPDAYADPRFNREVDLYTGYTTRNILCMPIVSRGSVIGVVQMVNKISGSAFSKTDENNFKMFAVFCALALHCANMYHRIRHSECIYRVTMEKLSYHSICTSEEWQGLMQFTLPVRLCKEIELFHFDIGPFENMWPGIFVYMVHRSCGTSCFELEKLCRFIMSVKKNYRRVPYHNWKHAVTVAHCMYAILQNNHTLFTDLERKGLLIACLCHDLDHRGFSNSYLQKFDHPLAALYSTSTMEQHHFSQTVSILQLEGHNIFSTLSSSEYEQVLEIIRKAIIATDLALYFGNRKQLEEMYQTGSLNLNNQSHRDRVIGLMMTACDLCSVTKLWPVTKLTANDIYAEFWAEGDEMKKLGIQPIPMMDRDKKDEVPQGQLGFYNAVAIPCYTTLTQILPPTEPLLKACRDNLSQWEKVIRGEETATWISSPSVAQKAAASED

IC50, < 5 nM:
Cn1ncc(-c2cccc(C(F)(F)F)n2)c1C(=O)Nc1ccn2cc(-c3ccccc3)nc2c1 [Example 1.6, 1-methyl-N-(2-phenylimidazo[1,2-a]pyridin-7-yl)-4-(6-(trifluoromethyl)pyridin-2-yl)-1H-pyrazole-5-carboxamide]
COc1ccnc(-c2cnn(C)c2C(=O)Nc2ccn3nc(N4CC[C@H](F)C4)nc3c2)c1 [Example 4.18, (S)-N-(2-(3-fluoropyrrolidin-1-yl)-[1,2,4]triazolo[1,5-a]pyridin-7-yl)-4-(4-methoxypyridin-2-yl)-1-methyl-1H-pyrazole-5-carboxamide]
Cc1ncnc(-c2cnn(C)c2C(=O)Nc2cc3nc(-c4ccccc4)nn3cc2F)c1F [Example 3.38, N-(6-fluoro-2-phenyl-[1,2,4]triazolo[1,5-a]pyridin-7-yl)-4-(5-fluoro-6-methylpyrimidin-4-yl)-1-methyl-1H-pyrazole-5-carboxamide]
COc1nccnc1-c1cnn(C)c1C(=O)Nc1cc2nc(-c3ccccc3)nn2cc1F [Example 3.28, N-(6-fluoro-2-phenyl-[1,2,4]triazolo[1,5-a]pyridin-7-yl)-4-(3-methoxypyrazin-2-yl)-1-methyl-1H-pyrazole-5-carboxamide]
Cc1cc(C)nc(-c2cnn(C)c2C(=O)Nc2cc3nc(N4CC[C@H](F)C4)nn3cc2F)c1 [Example 4.24, (S)-4-(4,6dimethylpyridin-2-yl)-N-(6-fluoro-2-(3-fluoropyrrolidin-1-yl)-[1,2,4]triazolo[1,5-a]pyridin-7-yl)-1-methyl-1H-pyrazole-5-carboxamide]
Cn1ncc(-c2ncncc2Cl)c1C(=O)Nc1cc2nc(-c3ccccc3)nn2cc1F [Example 3.29, 4-(5-chloropyrimidin-4-yl)-N-(6-fluoro-2-phenyl-[1,2,4]triazolo[1,5-a]pyridin-7-yl)-1-methyl-1H-pyrazole-5-carboxamide]
Cc1cncnc1-c1cnn(C)c1C(=O)Nc1cc2nc(-c3ccccc3)nn2cc1F [Example 3.33, N-(6-fluoro-2-phenyl-[1,2,4]triazolo[1,5-a]pyridin-7-yl)-1-methyl-4-(5-methylpyrimidin-4-yl)-1H-pyrazole-5-carboxamide]
Cn1ncc(-c2nc(C(F)(F)F)cs2)c1C(=O)Nc1cc2nc(-c3ccccc3)nn2cc1F [Example 3.6, N-(6-fluoro-2-phenyl-[1,2,4]triazolo[1,5-a]pyridin-7-yl)-1-methyl-4-(4-(trifluoromethyl)thiazol-2-yl)-1H-pyrazole-5-carboxamide]
Cc1cccc(-c2cnn(C)c2C(=O)Nc2ccn3nc(N4CCCC4)nc3c2)n1 [Example 4.31, 1-methyl-4-(6-methylpyridin-2-yl)-N-(2-(pyrrolidin-1-yl)-[1,2,4]triazolo[1,5-a]pyridin-7-yl)-1H-pyrazole-5-carboxamide]
Cc1cncc(-c2cnn(C)c2C(=O)NC2CCn3cc(-c4ccccc4)nc3C2)n1 (stereo not shown) [Example 2.13, 1-methyl-4-(6-methylpyrazin-2-yl)-N-(2-phenyl-5,6,7,8-tetrahydroimidazo[1,2-a]pyridin-7-yl)-1H-pyrazole-5-carboxamide]
Cc1cnc(C)c(-c2cnn(C)c2C(=O)Nc2cc3nc(-c4ccccc4)nn3cc2F)n1 [Example 3.14, 4-(3,6-dimethyl-pyrazin-2-yl)-N-(6-fluoro-2-phenyl-[1,2,4]triazolo[1,5-a]pyridin-7-yl)-1-methyl-1H-pyrazole-5-carboxamide]
Cn1ncc(-c2nc(C(F)(F)F)cs2)c1C(=O)Nc1ccn2nc(N3CCCC3)nc2c1 [Example 4.34, 1-methyl-N-(2-(pyrrolidin-1-yl)-[1,2,4]triazolo[1,5-a]pyridin-7-yl)-4-(4-(trifluoromethyl)thiazol-2-yl)-1H-pyrazole-5-carboxamide]
CCc1sc(-c2cnn(C)c2C(=O)NC2CCn3nc(-c4ccccc4)nc3C2)nc1C(F)F (stereo not shown) [Example 5.6, 4-(4-(difluoromethyl)-5-ethylthiazol-2-yl)-1-methyl-N-(2-phenyl-5,6,7,8-tetrahydro-[1,2,4]triazolo[1,5-a]pyridin-7-yl)-1H-pyrazole-5-carboxamide]
COc1nccc(-c2cnn(C)c2C(=O)Nc2cc3nc(-c4ccccc4)nn3cc2F)n1 [Example 3.26, N-(6-fluoro-2-phenyl-[1,2,4]triazolo[1,5-a]pyridin-7-yl)-4-(2-methoxypyrimidin-4-yl)-1-methyl-1H-pyrazole-5-carboxamide]
Cn1ncc(-c2nc(C(F)F)cs2)c1C(=O)Nc1cc2nc(-c3ccccc3)nn2cc1F [Example 3.12, 4-(4-(difluoromethyl)thiazol-2-yl)-N-(6-fluoro-2-phenyl-[1,2,4]triazolo[1,5-a]pyridin-7-yl)-1-methyl-1H-pyrazole-5-carboxamide]
Cn1ncc(-c2nc(C(F)F)cs2)c1C(=O)NC1CCn2nc(-c3ccccc3)nc2C1 (stereo not shown) [Example 5.17, 4-(4-(difluoromethyl)thiazol-2-yl)-1-methyl-N-(2-phenyl-5,6,7,8-tetrahydro-[1,2,4]triazolo[1,5-a]pyridin-7-yl)-1H-pyrazole-5-carboxamide]
Cc1ncc(C)c(-c2cnn(C)c2C(=O)Nc2cc3nc(N4CCCC4)nn3cc2F)n1 [Example 4.35, 4-(2,5-dimethylpyrimidin-4-yl)-N-(6-fluoro-2-(pyrrolidin-1-yl)-[1,2,4]triazolo[1,5-a]pyridin-7-yl)-1-methyl-1H-pyrazole-5-carboxamide]
Cc1cncc(-c2cnn(C)c2C(=O)Nc2cc3nc(-c4ccccc4)nn3cc2F)n1 [Example 3.9, N-(6-fluoro-2-phenyl-[1,2,4]triazolo[1,5-a]pyridin-7-yl)-1-methyl-4-(6-methylpyrazin-2-yl)-1H-pyrazole-5-carboxamide]
COc1ccnc(-c2cnn(C)c2C(=O)Nc2ccn3nc(N4CCC[C@@H]4C)nc3c2)c1 [Example 4.5, (S)-4-(4-methoxypyridin-2-yl)-1-methyl-N-(2-(2-methylpyrrolidin-1-yl)-[1,2,4]triazolo[1,5-a]pyridin-7-yl)-1H-pyrazole-5-carboxamide]
Cc1nc(-c2cnn(C)c2C(=O)NC2CCn3cc(-c4ccccc4)nc3C2)cs1 (stereo not shown) [Example 2.12, 1-methyl-4-(2-methylthiazol-4-yl)-N-(2-phenyl-5,6,7,8-tetrahydroimidazo[1,2-a]pyridin-7-yl)-1H-pyrazole-5-carboxamide]
COc1ccnc(-c2cnn(C)c2C(=O)Nc2ccn3nc(N4CCCC4)nc3c2)c1 [Example 4.28, 4-(4-methoxypyridin-2-yl)-1-methyl-N-(2-(pyrrolidin-1-yl)-[1,2,4]triazolo[1,5-a]pyridin-7-yl)-1H-pyrazole-5-carboxamide]
COc1cccc(-c2cnn(C)c2C(=O)NC2CCn3cc(-c4ccccc4)nc3C2)n1 (stereo not shown) [Example 2.11, 4-(6-methoxypyridin-2-yl)-1-methyl-N-(2-phenyl-5,6,7,8-tetrahydroimidazo[1,2-a]pyridin-7-yl)-1H-pyrazole-5-carboxamide]
Cn1ncc(-c2nc(C(F)F)cs2)c1C(=O)Nc1ccn2nc(N3CC[C@@H](F)C3)nc2c1 [Example 4.12, (R)-4-(4-(difluoromethyl)thiazol-2-yl)-N-(2-(3-fluoropyrrolidin-1-yl)-[1,2,4]triazolo[1,5-a]pyridin-7-yl)-1-methyl-1H-pyrazole-5-carboxamide]
Cc1cccc(-c2cnn(C)c2C(=O)NC2CCn3cc(-c4ccccc4)nc3C2)n1 (stereo not shown) [Example 2.9, 1-methyl-4-(6-methylpyridin-2-yl)-N-(2-phenyl-5,6,7,8-tetrahydroimidazo[1,2-a]pyridin-7-yl)-1H-pyrazole-5-carboxamide]
Cc1ccc(-c2cnn(C)c2C(=O)Nc2cc3nc(-c4ccccc4)nn3cc2F)nc1 [Example 3.51, N-(6-fluoro-2-phenyl-[1,2,4]triazolo[1,5-a]pyridin-7-yl)-1-methyl-4-(5-methylpyridin-2-yl)-1H-pyrazole-5-carboxamide]
Cc1sc(-c2cnn(C)c2C(=O)NC2CCn3cc(-c4ccccc4)nc3C2)nc1C(F)F (stereo not shown) [Example 2.6, 4-(4-(difluoromethyl)-5-methylthiazol-2-yl)-1-methyl-N-(2-phenyl-5,6,7,8-tetrahydroimidazo[1,2-a]pyridin-7-yl)-1H-pyrazole-5-carboxamide]
COc1cncc(-c2cnn(C)c2C(=O)Nc2cc3nc(-c4ccccc4)nn3cc2F)n1 [Example 3.42, N-(6-fluoro-2-phenyl-[1,2,4]triazolo[1,5-a]pyridin-7-yl)-4-(6-methoxypyrazin-2-yl)-1-methyl-1H-pyrazole-5-carboxamide]
CC(C)c1nsc(-c2cnn(C)c2C(=O)NC2CCn3cc(-c4ccccc4)nc3C2)n1 (stereo not shown) [Example 2.14, 4-(3-isopropyl-1,2,4-thiadiazol-5-yl)-1-methyl-N-(2-phenyl-5,6,7,8-tetrahydroimidazo[1,2-a]pyridin-7-yl)-1H-pyrazole-5-carboxamide]
Cc1nccnc1-c1cnn(C)c1C(=O)Nc1cc2nc(-c3ccccc3)nn2cc1F [Example 3.32, N-(6-fluoro-2-phenyl-[1,2,4]triazolo[1,5-a]pyridin-7-yl)-1-methyl-4-(3-methylpyrazin-2-yl)-1H-pyrazole-5-carboxamide]
Cc1cccc(-c2cnn(C)c2C(=O)Nc2ccn3nc(N4CCC[C@@H]4C)nc3c2)n1 [Example 4.7, (S)-1-methyl-4-(6-methylpyridin-2-yl)-N-(2-(2-methylpyrrolidin-1-yl)-[1,2,4]triazolo[1,5-a]pyridin-7-yl)-1H-pyrazole-5-carboxamide]
Cc1cccc(-c2cnn(C)c2C(=O)Nc2ccn3nc(N4CC[C@H](F)C4)nc3c2)n1 [Example 4.21, (S)-N-(2-(3-fluoropyrrolidin-1-yl)-[1,2,4]triazolo[1,5-a]pyridin-7-yl)-1-methyl-4-(6-methylpyridin-2-yl)-1H-pyrazole-5-carboxamide]
